{"source": "paper PMC7906907", "about": "“Targeting STAT3 by a small molecule suppresses pancreatic cancer progression” (Oncogene, 2021)", "key": {"STAT3": {"system": "STAT3", "experiment": "STAT3-response dual luciferase reporter assay", "type": "cell-based", "description": "Fig. 1 N4 inhibits STAT3 dimerization and transcription in vitro. A Purified STAT3 protein was incubated with labeled phosphopeptide, 5-carboxyfluorescein-GpYLPQTV-NH2 for 1 h at 37 °C. FP signals were measured, and the data were analyzed using Graph Pad 7.0 software. B Chemical structure of N4. C Different concentrations of N4 were pre-incubated with recombined STAT3 protein for 1 h, then 10 nM of labeled peptide was added for 1 h. The IC50 was calculated using Graph Pad 7.0. D, E, F STAT3 specific luciferase reporter plasmid was transiently transfected into 293T cells. After 24 h transfection, IL-6 (20 ng/mL), OSM (10 ng/mL), and V-SRC expression plasmid (200 ng) was used to activate STAT3 luciferase activity, N4 was added at the indicated concentrations. Renilla luciferase activities were used as an internal reference (n = 2 per group). The values are expressed as mean ± SD and the bars indicate statistically significant differences (t test), *P < 0.05; **P < 0.01; ***P < 0.001.\nDual luciferase assay was performed as previously described. […] Renilla and firefly luciferase activities were determined by luminometry using the Dual Luciferase Reporter Assay System (Promega). The ratio was calculated.\nSupplementary Figure 5. […] The values are expressed as mean ± SD and the bars indicate statistically significant differences (t-test), *P < 0.05; **P < 0.01; ***P < 0.001. […]"}, "STAT3–EGFR interaction": {"target": "T1, STAT3–EGFR interaction (Homo sapiens, UniProt P40763)", "T1 construct": "endogenous in cells; host or cells: PANC-1", "T1 sequence (P40763 2-770 limits assumed)": "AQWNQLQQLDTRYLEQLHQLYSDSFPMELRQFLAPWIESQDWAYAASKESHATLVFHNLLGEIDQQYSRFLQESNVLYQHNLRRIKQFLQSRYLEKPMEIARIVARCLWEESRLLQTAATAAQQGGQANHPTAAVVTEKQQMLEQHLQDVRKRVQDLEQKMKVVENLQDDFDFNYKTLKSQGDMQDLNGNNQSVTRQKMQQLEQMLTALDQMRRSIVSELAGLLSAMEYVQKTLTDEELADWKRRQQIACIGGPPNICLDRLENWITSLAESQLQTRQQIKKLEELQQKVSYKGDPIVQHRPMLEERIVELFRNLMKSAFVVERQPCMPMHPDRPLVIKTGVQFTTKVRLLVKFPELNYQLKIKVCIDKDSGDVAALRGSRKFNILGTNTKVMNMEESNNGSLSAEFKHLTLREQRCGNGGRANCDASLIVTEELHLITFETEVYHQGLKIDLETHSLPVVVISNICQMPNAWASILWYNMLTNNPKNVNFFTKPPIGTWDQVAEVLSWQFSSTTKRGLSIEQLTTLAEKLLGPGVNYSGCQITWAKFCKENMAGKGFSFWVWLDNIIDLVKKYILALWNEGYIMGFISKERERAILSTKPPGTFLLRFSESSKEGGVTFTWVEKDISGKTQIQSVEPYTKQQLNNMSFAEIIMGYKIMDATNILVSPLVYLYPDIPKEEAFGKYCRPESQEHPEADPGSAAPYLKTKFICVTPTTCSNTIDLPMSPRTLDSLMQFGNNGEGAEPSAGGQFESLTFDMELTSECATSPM", "experiment": "Co-immunoprecipitation, STAT3–EGFR interaction", "type": "cell-based", "settings": "PANC-1 cells, 2 μM, 24 h", "text": "Fig. 3 N4 interacts with the STAT3-SH2 domain and interferes with the STAT3-EGFR and STAT3-NF-κB interactions. […] C–E The binding between N4 and STAT3 was examined in (C) SPR and (D) MST experiments. His-STAT3^127-722 protein was purified and used to examine the affinity between STAT3 and N4. (E) The binding between N4 and STAT3^SH2 was confirmed in MST assays. STAT3-SH2 protein was purified and labeled. N4 was serially diluted and mixed with equal volumes of labeled STAT3^SH2 protein. The MST signal was measured, and the data were analyzed by MO analysis software. F, G The FLAG-tag and HA-tag STAT3 expression plasmid was transfected into 293 T cells, followed by the addition of the indicated concentrations of N4. After 24 h, cells were lysed, and immunoprecipitation experiments were performed as described in Materials and Methods. H N4 represses STAT3 dimerization in pancreatic cancer cells. I After a 24 h treatment with 2 μM N4, pancreatic cancer cells were stimulated with IL-6 for 30 min. Cell lysates were immunoprecipitated with STAT3 overnight. The precipitates were washed, suspended in non-reducing sample buffer, and boiled for 10 min. The indicated antibodies were used for western blot assays. […]\nCo-IP was performed as previously described. […] After overnight incubation, the precipitates were washed and analyzed using western blotting."}, "PANC-1": {"system": "PANC-1", "experiment": "PANC-1 subcutaneous tumor growth xenograft model", "type": "in vivo", "description": "Fig. 5 N4 suppresses pancreatic cancer growth in vivo. PANC-1 cells were injected into the right flank of BALB/c-nude mice. After the volume of tumor nodules reached 200–300 mm^3, the mice were randomly assigned to the indicated groups and were injected intraperitoneally daily with vehicle (n = 7), 40 mg/kg/d C188-9 (n = 7), 10 mg/kg/d N4 (n = 8), or 20 mg/kg/d N4 (n = 8). The mice were sacrificed after treatment for 20 days and the tumors from each group of mice were excised. A, B Tumor volumes were measured every 4 days. Tumor volumes were calculated by the formula: length × width^2 × 0.52. […] C After treatment for 20 days, the tumors from each group of mice were excised and photographed. D After the experiments, all the tumors were weighted. […] E Tumor samples were collected, and protein was extracted for western blot analysis. p-STAT3 (Y705), p-STAT3(S727), STAT3, and CMYC were detected, with GAPDH used as the loading control. Immunohistochemistry examinations were performed in the different treatment groups, p-STAT3 (Y705), Ki-67 and cleaved caspase3 were quantified (F) and photographed (G). The scale bar denotes 20 μm. Data are expressed as mean ± SD, **P < 0.01, ****P < 0.0001 and n.s. not significant by one-way ANOVA.\nBALB/c-nude, male, 6–8-week-old mice were obtained from the Animal Center of East China Normal University. All animal experimental protocols were approved by the Animal Investigation Committee of the Institute of Biomedical Sciences, East China Normal University. PANC-1 cells (5 × 10^6) were suspended in PBS with 50% Matrigel and injected into the right flank of the mice. Treatment began after the tumor nodules reached 150–250 mm^3 in volume. The tumor-bearing mice were randomly assigned to four groups and treated with the indicated compounds. The tumor volume and mice body weight were measured after 4 days. The tumor volume (V) was calculated as length × width × width × 0.52. At the end of experiment, the mice were sacrificed. Solid tumors were removed and processed for immunohistochemistry analysis."}}, "data": [{"smiles": "COc1cc2c(cc1C(=O)Nc1cccc3cccnc13)CCC1C(C)(C)C(=O)C(C#N)=C[C@]21C", "note": "(stereo partly drawn) [N4]", "values": [{"measurement": "STAT3-dependent luciferase reporter activity", "setting": "STAT3; 293T cells, IL-6, OSM or V-SRC induced", "value": "suppressed"}, {"measurement": "STAT3-response luciferase activities", "setting": "STAT3; PANC-1 and BXPC-3 cells, with or without IL-6 stimulation", "value": "efficiently inhibited"}, {"measurement": "STAT3–EGFR interaction", "setting": "STAT3–EGFR interaction", "value": "inhibited"}, {"measurement": "bodyweight of mice", "setting": "PANC-1; 10 and 20 mg/kg/d", "value": "did not affect"}, {"measurement": "pancreatic cancer growth (tumor volume)", "setting": "PANC-1; 10 and 20 mg/kg/d, intraperitoneally daily, 20 days", "value": "significantly inhibited"}, {"measurement": "Hematoxylin and eosin staining of main organs, signs of toxicity", "setting": "PANC-1; mouse, in vivo", "value": "did not produce morphological signs of toxicity"}]}]}
